# What was measured:
# [1] = molecular target: T1, recombinant human HDC (Homo sapiens, UniProt P19113); experiment: Human-HDC activity determination (14CO2 from L-[U-14C]histidine); format: biochemical; details: 10 μM final
# T1 construct: The DNA encoding for residues 1-512 of human HDC; GST (fusion partner of the pGEX-6P-1 vector) (N, cleaved yes); made in house; host or cells: Escherichia coli BL21(DE3)pLysS
# T1 sequence (P19113 1-512): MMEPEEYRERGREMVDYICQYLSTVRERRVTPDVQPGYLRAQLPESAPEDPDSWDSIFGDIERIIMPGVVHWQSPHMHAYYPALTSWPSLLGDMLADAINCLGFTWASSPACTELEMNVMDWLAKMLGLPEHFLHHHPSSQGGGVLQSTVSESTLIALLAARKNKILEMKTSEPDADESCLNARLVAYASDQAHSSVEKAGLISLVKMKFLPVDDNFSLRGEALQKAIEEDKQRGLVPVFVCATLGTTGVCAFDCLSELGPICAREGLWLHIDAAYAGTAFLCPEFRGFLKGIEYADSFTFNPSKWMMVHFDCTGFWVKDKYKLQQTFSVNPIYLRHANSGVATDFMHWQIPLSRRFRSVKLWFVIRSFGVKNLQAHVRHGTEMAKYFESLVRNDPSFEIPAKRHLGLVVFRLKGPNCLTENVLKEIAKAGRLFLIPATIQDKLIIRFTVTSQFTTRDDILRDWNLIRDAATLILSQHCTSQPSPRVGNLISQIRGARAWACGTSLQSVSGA
# Text: The DNA encoding for residues 1-512 of human HDC was subcloned in the pGEX-6P-1 vector (GE-Healthcare). The recombinant plasmid transformed into the Escherichia coli BL21(DE3)pLysS strain. Transformed cultures were induced to express the HDC 1/512, which was purified by affinity chromatography using Glutathione sepharose (GE-Healthcare). 1/512 HDC was released from the fusion protein bound to the affinity chromatography support by digestion with the Pre-Scission™ protease (GE-Healthcare). The final preparations were dissolved in 50 mM potassium phosphate, 0.1 mM PLP, pH 7.0. Purity of the HDC 1/512 construct was checked by Coomassie blue staining and Western blotting, and was higher than 95% in the final preparations.
# HDC activity was assayed, as described in Engel at al. (1996) Biochem J. 320: 365-368, by measuring the production of ^14CO2 from L-[U-^14C]histidine (GE-Healthcare) in a mixture containing 0.2 mM dithiothreitol, 10 μM PLP, 10 mg/ml poly(ethylene glycol)-300, 100 mM potassium phosphate, pH 6.8, and purified protein in a total volume of 100 μL. When recombinant HDC was used, the concentration of L[U-^14C]histidine was 13.3 μM (with ⅓ isotopic dilution). The released ^14CO2 was measured as previously described for HDC activity determinations (Urdiales et al. (1992) FEBS Lett. 305, 260-264).
# 10 μM concentration of each isomer, A and B (A corresponds to the isolated pure isomer eluting at 5.9 minutes, B corresponds to the isolated pure isomer eluting at 7.1 minutes of the chromatogram shown in FIG. 4 (bottom)) and their corresponding racemic mixture (starting material prior to separating the individual isomers, indicated as A+B) along with 4 μg of recombinant human HDC were used to asses the inhibitory effect of each isomer and the mixture on the enzymatic conversion of histidine to histamine. Results are presented as means of duplicates samples.
# [2] = system: human TF1 cells that express H4R; experiment: TF1 cell proliferation assay (GM-CSF promoted); format: cell-based
# Method: Tritoqualine was tested on a cell proliferation assay using human TF1 cells that express H4R.
# TF1 cell proliferation is promoted using granulocyte/macrophage colony-stimulating factor (GM-CSF). In this cell proliferation model H4R agonists inhibit cell proliferation. Clobenpropit (CB), a known H4R agonist at a dose of 10^−5M (10 μM) was used as a known cell proliferation inhibition control. […] Each experiment used 100,000 TF1 cells/mL incubated for three days with GM-CSF (10 ng/mL). After addition of TRQ in the range of 10^−5M (10 μM) to 10^−7 M (0.1 μM), and incubation for 3 days, cell proliferation was assessed and compared to that of 10 μM CB.
smiles,measurement,setting,value
"CCOc1c(N)c2c(c(OCC)c1OCC)C(C1c3c(cc4c(c3OC)OCO4)CCN1C)OC2=O (racemic) [Tritoqualine, 7-Amino-4,5,6-triethoxy-3-(5,6,7,8-tetrahydro-4-methoxy-6-methyl-1,3-dioxolo[4,5-g]isoquinolin-5-yl) phthalide]",inhibition at 10 µM,[1],17.5%
same,DPM,"[1]; 4 μg recombinant human HDC, means of duplicates, control 12340",10176 DPM
same,Activity,[1]; control 0.35,0.29 µmol/h
same,Specific activity,[1]; control 87.00,71.74 μmole/h · mg prot
same,remaining activity at 10 µM,[1]; read-out: % of control,82.5%
same,inhibition of cell proliferation,[2]; 0.1 μM,no inhibition of cell proliferation
same,inhibition at 10 µM,"[2]; Homo sapiens, TF-1, 72 h, 10 μM, 3 days, three separate assays (n=3)",49%
same,inhibition at 1 µM,"[2]; Homo sapiens, TF-1, 1 μM",18%
